The text below walks through data of the supplement of paper PMC10331698.

± gives the standard deviation of the averaged measurements.

Common to all, as to test: level (log10 ratio to DMSO vehicle control); higher = higher biomarker level / cell amount than vehicle control
Common to all, as to details: in DMSO

Compound in assay [1]: C=C(C)C(=O)OCC(F)(F)C(F)(F)C(F)(F)C(F)(F)C(F)(F)C(F)(F)C(F)(F)F
The method, then:
(§1)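 BioMAP Diversity Plus panel of 12 human primary cell co-culture systems (3C, 4H, LPS, SAg, BT, BF4T, BE3C, CASM3C, HDF3CGF, KF3CT, MyoF, Mphg). Compounds were added 1 h before stimulation and left for 24 h (MyoF 48 h; BT 72 h for soluble read-outs or 6 d for IgG). Biomarkers were read by ELISA, cytotoxicity by SRB, PBMC viability and proliferation by Alamar Blue. Each well value was divided by the mean of 8 DMSO control wells on the same plate and log10 transformed; duplicate blinded samples were tested at 4 concentrations.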

Compound in assay [2]: O=C(O)CCC(F)(F)C(F)(F)C(F)(F)C(F)(F)C(F)(F)F [2H,2H,3H,3H-Perfluorooctanoic acid]
The method, then: as §1

Compound in assay [3]: O=S(=O)(O)C(F)(F)C(F)(F)C(F)(F)C(F)(F)F [Perfluorobutanesulfonic acid]
The method, then:
as §1

Turning to HDF3CGF:M-CSF, the “level (log10)” value in assay [1] (6700 nM) is 0.009 ± 0.033; in assay [1] (20000 nM), 0.0245 ± 0.03; in assay [2] (6700 nM) it was -0.044 ± 0.089; in assay [2] (20000 nM) it was -0.067 ± 0.086; in assay [2] (60000 nM) it was -0.051 ± 0.12; in assay [3] (6700 nM), 0.011 ± 0.0085. Besides, the figures for the “level (log10)” value in assay [3] (20000 nM) and in assay [3] (60000 nM) were 0.0045 ± 0.0035 and 0.0025 ± 0.005, respectively.

With MyoF:SRB, the “level (log10)” value in assay [1] (6700 nM) is -0.0005 ± 0.0021; in assay [1] (20000 nM), -0.0065 ± 0.0064; in assay [2] (6700 nM) it was -0.002 ± 0.0057; in assay [2] (20000 nM) it was -0.0035 ± 0.0064; in assay [2] (60000 nM), -0.0065 ± 0.015; in assay [3] (6700 nM), -0.002 ± 0.0071. Also, the “level (log10)” value in assay [3] (20000 nM) is -0.0035 ± 0.00071; in assay [3] (60000 nM), 0.0085 ± 0.00071.

With KF3CT:IL-1alpha, the “level (log10)” value in assay [1] (6700 nM) is -0.014 ± 0.023; in assay [1] (20000 nM), 0.0015 ± 0.0092; in assay [2] (6700 nM) it was 0.007 ± 0.0085; in assay [2] (20000 nM), -0.0055 ± 0.016; in assay [2] (60000 nM) it was -0.0345 ± 0.029; in assay [3] (6700 nM), -0.009 ± 0.0042. In addition, the “level (log10)” value in assay [3] (20000 nM) is -0.0085 ± 0.0078; in assay [3] (60000 nM), -0.006 ± 0.025.

For the test system HDF3CGF:TIMP-1, the “level (log10)” value in assay [1] (6700 nM) is 0.041 ± 0.038; in assay [1] (20000 nM), 0.036 ± 0.03; in assay [2] (6700 nM), -0.019 ± 0.064; in assay [2] (20000 nM) it was -0.01 ± 0.11; in assay [2] (60000 nM), -0.047 ± 0.17; in assay [3] (6700 nM), -0.032 ± 0.064. Also, the “level (log10)” value turned out to be 0.0125 ± 0.0078 in assay [3] (20000 nM) and 0.0195 ± 0.011 in assay [3] (60000 nM).

Consider lMphg:CCL3/MIP-1alpha, for which the “level (log10)” value is -0.032 ± 0.0028 in assay [1] (6700 nM); 0.007 ± 0.045 in assay [1] (20000 nM); 0.032 ± 0.052 in assay [2] (6700 nM); 0.0625 ± 0.081 in assay [2] (20000 nM); 0.0765 ± 0.053 in assay [2] (60000 nM); -0.0305 ± 0.016 in assay [3] (6700 nM). The “level (log10)” value is -0.0395 ± 0.005 in assay [3] (20000 nM) and -0.0135 ± 0.0092 in assay [3] (60000 nM).

On to MyoF:Collagen IV, for which the “level (log10)” value in assay [1] (6700 nM) is -0.0155 ± 0.0064; in assay [1] (20000 nM), 0.0195 ± 0.016; in assay [2] (6700 nM) it was -0.009 ± 0.021; in assay [2] (20000 nM), -0.0075 ± 0.026; in assay [2] (60000 nM), 0.0115 ± 0.023; in assay [3] (6700 nM), 0.04 ± 0.0057. The “level (log10)” value in assay [3] (20000 nM) worked out at 0.0055 ± 0.033; in assay [3] (60000 nM) it was 0.016 ± 0.013.

Consider HDF3CGF:TIMP-2, for which the “level (log10)” value in assay [1] (6700 nM) was 0.0535 ± 0.0092; in assay [1] (20000 nM), 0.0035 ± 0.056; in assay [2] (6700 nM), -0.0325 ± 0.021; in assay [2] (20000 nM), -0.04 ± 0.023; in assay [2] (60000 nM), 0.005 ± 0.047; in assay [3] (6700 nM), 0.0135 ± 0.037. Besides, the “level (log10)” value turned out to be 0.017 ± 0.023 in assay [3] (20000 nM) and 0.031 ± 0.014 in assay [3] (60000 nM).

In the case of BE3C:PAI-I, the “level (log10)” value in assay [1] (6700 nM) is 0.0055 ± 0.0078; in assay [1] (20000 nM), 0.0105 ± 0.018; in assay [2] (6700 nM) it was -0.0035 ± 0.0064; in assay [2] (20000 nM) it was 0.027 ± 0.011; in assay [2] (60000 nM) it was 0.044 ± 0.0057; in assay [3] (6700 nM), -0.0015 ± 0.0035. Besides, the “level (log10)” value in assay [3] (20000 nM) is -0.006 ± 0.013; in assay [3] (60000 nM), 0.008 ± 0.013.

Regarding CASM3C:PAI-I, the “level (log10)” value in assay [1] (6700 nM) was -0.005 ± 0.0014; in assay [1] (20000 nM), -0.005 ± 0.0028; in assay [2] (6700 nM), -0.0015 ± 0.013; in assay [2] (20000 nM), -0.0045 ± 0.019; in assay [2] (60000 nM), -0.012 ± 0.0099; in assay [3] (6700 nM) it was -0.0095 ± 0.012. Moreover, the “level (log10)” value in assay [3] (20000 nM) was 0.0035 ± 0.0064; in assay [3] (60000 nM) it was 0.007 ± 0.0099.

In the case of HDF3CGF:CXCL10/IP-10, the “level (log10)” value in assay [1] (6700 nM) is -0.012 ± 0.0042; in assay [1] (20000 nM) it was -0.002 ± 0.025; in assay [2] (6700 nM), -0.0015 ± 0.0092; in assay [2] (20000 nM), 0.02 ± 0.0014; in assay [2] (60000 nM) it was -0.0205 ± 0.054; in assay [3] (6700 nM), -0.0075 ± 0.0078. Besides, the “level (log10)” value in assay [3] (20000 nM) is -0.0105 ± 0.005; in assay [3] (60000 nM), -0.0195 ± 0.0021.

With CASM3C:CD106/VCAM-1, the “level (log10)” value in assay [1] (6700 nM) was 0.011 ± 0.0014; in assay [1] (20000 nM), -0.0155 ± 0.046; in assay [2] (6700 nM), 0.0025 ± 0.019; in assay [2] (20000 nM), 0.0115 ± 0.044; in assay [2] (60000 nM), 0.01 ± 0.018; in assay [3] (6700 nM), -0.0465 ± 0.021. Besides, the “level (log10)” value is -0.0255 ± 0.025 in assay [3] (20000 nM) and -0.033 ± 0.0057 in assay [3] (60000 nM).
